Experimental data reported in US6355799B1, “Substituted benzene compounds, process for their preparation, and herbicidal and defoliant compositions containing them” (ISK Americas Incorporated, priority 1997, dated 2002).

What was measured:
Assay type in all cases: in vivo
[1] = tested on: upland rice (Oryza sp., var. Tebonnet, RICE); test: Pre-emerge test, crop safety; conditions: pre-emerge, rated 14 days after application, 0 = no damage, 100 = complete death
In short: (§1)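 Visual ratings on a 0-100 scale (0 no damage, 100 all plants dead) were taken at 14 days after treatment. Rates of 15-1000 g ai/ha in acetone, 187 l/ha, were sprayed onto soil one day after planting (pre-emerge) or onto 2-3 leaf plants with 0.25% v/v surfactant (post-emerge).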

[2] = tested on: field corn (Zea mays L., var. Dekalb 535, CORN); test: Pre-emerge test, crop safety; conditions: pre-emerge, rated 14 days after application, 0 = no damage, 100 = complete death
In short: as §1

[3] = tested on: upland rice (Oryza sp., var. Tebonnet, RICE); test: Post-emerge test, crop safety; conditions: phytotoxicity rating 0-100 (0 no damage, 100 complete death), 14 days after application
In short: (§2)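 Each test used a mechanized track sprayer delivering 187 l/ha of acetone solution at 15–1000 g ai/ha. Post-emerge foliage at 2–3 leaves was treated with added 0.25% v/v non-ionic surfactant and bottom-watered only. Injury was assessed on day 14, where 100 means total kill.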

[4] = tested on: field corn (Zea mays L., var. Dekalb 535, CORN); test: Post-emerge test, crop safety; conditions: phytotoxicity rating 0-100 (0 no damage, 100 complete death), 14 days after application
In short: as §2

[5] = tested on: ivyleaf morningglory (Ipomoea hederacea, IPOHE); test: Pre-emerge test, greenhouse herbicide activity screening; conditions: pre-emerge, rated 14 days after application, 0 = no damage, 100 = complete death
In short: (§3)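 Plants grown in 10 cm pots of sandy loam mix received acetone-dissolved compounds through a moving flat-fan nozzle. Doses ranged from 15 to 1000 g ai/ha. Pre-emerge pots were seeded one day earlier, post-emerge pots 8–21 days earlier. Fourteen days on, each pot was graded 0–100 for damage.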

[6] = tested on: lambsquarters (Chenopodium album, CHEAL); test: as above; conditions: pre-emerge, rated 14 days after application, 0 = no damage, 100 = complete death
In short: as §3

[7] = tested on: large crabgrass (Digitaria sanguinalis, DIGSA); test: as above; conditions: pre-emerge, rated 14 days after application, 0 = no damage, 100 = complete death
In short: as §3

[8] = tested on: sicklepod (Cassia obtusifolia, CASOB); test: as above; conditions: pre-emerge, rated 14 days after application, 0 = no damage, 100 = complete death
In short: as §3

[9] = tested on: green foxtail (Setaria viridis, SETVI); test: as above; conditions: pre-emerge, rated 14 days after application, 0 = no damage, 100 = complete death
In short: as §3

[10] = tested on: barnyardgrass (Echinochloa crus-galli, ECHCG); test: as above; conditions: pre-emerge, rated 14 days after application, 0 = no damage, 100 = complete death
In short: as §3

[11] = tested on: johnsongrass (Sorghum halepense, SORHA); test: as above; conditions: pre-emerge, rated 14 days after application, 0 = no damage, 100 = complete death
In short: as §3

[12] = tested on: velvetleaf (Abutilon theophrasti, ABUTH); test: as above; conditions: pre-emerge, rated 14 days after application, 0 = no damage, 100 = complete death
In short: as §3

[13] = tested on: redroot pigweed (Amaranthus retroflexus, AMARE); test: Post-emerge test, greenhouse herbicide activity screening; conditions: phytotoxicity rating 0-100 (0 no damage, 100 complete death), 14 days after application
In short: (§4)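 Rating: 0–100 visual injury, 14 DAA. Application: acetone, 187 l/ha, 15–1000 g ai/ha, flat-fan track sprayer with nozzle 40–45 cm above soil or canopy. Post-emerge runs used 0.25% v/v surfactant on 2–3 leaf plants.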

[14] = tested on: ivyleaf morningglory (Ipomoea hederacea, IPOHE); test: as above; conditions: phytotoxicity rating 0-100 (0 no damage, 100 complete death), 14 days after application
In short: as §4

[15] = tested on: lambsquarters (Chenopodium album, CHEAL); test: as above; conditions: phytotoxicity rating 0-100 (0 no damage, 100 complete death), 14 days after application
In short: as §4

[16] = tested on: large crabgrass (Digitaria sanguinalis, DIGSA); test: as above; conditions: phytotoxicity rating 0-100 (0 no damage, 100 complete death), 14 days after application
In short: as §4

[17] = tested on: sicklepod (Cassia obtusifolia, CASOB); test: as above; conditions: phytotoxicity rating 0-100 (0 no damage, 100 complete death), 14 days after application
In short: as §4

[18] = tested on: green foxtail (Setaria viridis, SETVI); test: as above; conditions: phytotoxicity rating 0-100 (0 no damage, 100 complete death), 14 days after application
In short: as §4

[19] = tested on: barnyardgrass (Echinochloa crus-galli, ECHCG); test: as above; conditions: phytotoxicity rating 0-100 (0 no damage, 100 complete death), 14 days after application
In short: as §4

[20] = tested on: johnsongrass (Sorghum halepense, SORHA); test: as above; conditions: phytotoxicity rating 0-100 (0 no damage, 100 complete death), 14 days after application
In short: as §4

[21] = tested on: velvetleaf (Abutilon theophrasti, ABUTH); test: as above; conditions: phytotoxicity rating 0-100 (0 no damage, 100 complete death), 14 days after application
In short: as §4

[22] = tested on: redroot pigweed (Amaranthus retroflexus, AMARE); test: Pre-emerge test, greenhouse herbicide activity screening; conditions: pre-emerge, rated 14 days after application, 0 = no damage, 100 = complete death
In short: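 Herbicidal damage is scored 0 (none) to 100 (complete plant death) two weeks after a simulated field spray. Rates span 15–1000 g ai/ha, delivered in acetone at 187 l/ha. For post-emergence treatments, plants have 2–3 leaves and the spray carries 0.25% v/v non-ionic surfactant.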

## C#CCOc1c(Cl)cc(F)c(-n2c(=O)cc(C(F)(F)F)n(C)c2=O)c1N [Compound 1-19]
[1]; 63 g ai/ha
  Pre-emerge crop damage RICE (phytotoxicity rating, scale 0-100): 80
[1]; 250 g ai/ha
  Pre-emerge crop damage RICE (phytotoxicity rating, scale 0-100): 95
[2]; 63 g ai/ha
  Pre-emerge crop damage CORN (phytotoxicity rating, scale 0-100): 50
[2]; 250 g ai/ha
  Pre-emerge crop damage CORN (phytotoxicity rating, scale 0-100): 80
[3]; 63 g ai/ha
  Post-emerge Herbicidal Activity RICE (crop damage): 25
[3]; 250 g ai/ha
  Post-emerge Herbicidal Activity RICE (crop damage): 80
[4]; 63 g ai/ha
  Post-emerge Herbicidal Activity CORN (crop damage): 5
[4]; 250 g ai/ha
  Post-emerge Herbicidal Activity CORN (crop damage): 45
[5]; 63 g ai/ha
  Pre-emerge Herbicidal Activity IPOHE (phytotoxicity rating, scale 0-100): 60
[5]; 250 g ai/ha
  Pre-emerge Herbicidal Activity IPOHE (phytotoxicity rating, scale 0-100): 100
[6]; 63 g ai/ha
  Pre-emerge Herbicidal Activity CHEAL (phytotoxicity rating, scale 0-100): 100
[6]; 250 g ai/ha
  Pre-emerge Herbicidal Activity CHEAL (phytotoxicity rating, scale 0-100): 100
[7]; 63 g ai/ha
  Pre-emerge Herbicidal Activity DIGSA (phytotoxicity rating, scale 0-100): 95
[7]; 250 g ai/ha
  Pre-emerge Herbicidal Activity DIGSA (phytotoxicity rating, scale 0-100): 100
[8]; 63 g ai/ha
  Pre-emerge Herbicidal Activity CASOB (phytotoxicity rating, scale 0-100): 90
[8]; 250 g ai/ha
  Pre-emerge Herbicidal Activity CASOB (phytotoxicity rating, scale 0-100): 100
[9]; 63 g ai/ha
  Pre-emerge Herbicidal Activity SETVI (phytotoxicity rating, scale 0-100): 100
[9]; 250 g ai/ha
  Pre-emerge Herbicidal Activity SETVI (phytotoxicity rating, scale 0-100): 100
[10]; 63 g ai/ha
  Pre-emerge Herbicidal Activity ECHCG (phytotoxicity rating, scale 0-100): 90
[10]; 250 g ai/ha
  Pre-emerge Herbicidal Activity ECHCG (phytotoxicity rating, scale 0-100): 100
[11]; 63 g ai/ha
  Pre-emerge Herbicidal Activity SORHA (phytotoxicity rating, scale 0-100): 90
[11]; 250 g ai/ha
  Pre-emerge Herbicidal Activity SORHA (phytotoxicity rating, scale 0-100): 100
[12]; 63 g ai/ha
  Pre-emerge Herbicidal Activity ABUTH (phytotoxicity rating, scale 0-100): 100
[12]; 250 g ai/ha
  Pre-emerge Herbicidal Activity ABUTH (phytotoxicity rating, scale 0-100): 100
[13]; 63 g ai/ha
  Post-emerge Herbicidal Activity AMARE: 30
[13]; 250 g ai/ha
  Post-emerge Herbicidal Activity AMARE: 70
[14]; 63 g ai/ha
  Post-emerge Herbicidal Activity IPOHE: 30
[14]; 250 g ai/ha
  Post-emerge Herbicidal Activity IPOHE: 95
[15]; 63 g ai/ha
  Post-emerge Herbicidal Activity CHEAL: 30
[15]; 250 g ai/ha
  Post-emerge Herbicidal Activity CHEAL: 90
[16]; 63 g ai/ha
  Post-emerge Herbicidal Activity DIGSA: 0
[16]; 250 g ai/ha
  Post-emerge Herbicidal Activity DIGSA: 10
[17]; 63 g ai/ha
  Post-emerge Herbicidal Activity CASOB: 10
[17]; 250 g ai/ha
  Post-emerge Herbicidal Activity CASOB: 30
[18]; 63 g ai/ha
  Post-emerge Herbicidal Activity SETVI: 20
[18]; 250 g ai/ha
  Post-emerge Herbicidal Activity SETVI: 95
[19]; 63 g ai/ha
  Post-emerge Herbicidal Activity ECHCG: 0
[19]; 250 g ai/ha
  Post-emerge Herbicidal Activity ECHCG: 80
[20]; 63 g ai/ha
  Post-emerge Herbicidal Activity SORHA: 0
[20]; 250 g ai/ha
  Post-emerge Herbicidal Activity SORHA: 70
[21]; 63 g ai/ha
  Post-emerge Herbicidal Activity ABUTH: 100
[21]; 250 g ai/ha
  Post-emerge Herbicidal Activity ABUTH: 100
[22]; 63 g ai/ha
  Pre-emerge Herbicidal Activity AMARE (phytotoxicity rating, scale 0-100): 95
[22]; 250 g ai/ha
  Pre-emerge Herbicidal Activity AMARE (phytotoxicity rating, scale 0-100): 100
